Experimental data as given in PubChem BioAssay AID256 (DTP/NCI, 2004).
Where “and” joins values, the source holds several entries; their conditions need not be identical. Identical values can stand only once. Toxic doses and inconclusive results are not listed. The calls were made as follows: active = survival T/C of 150% or more; inactive = T/C below 125% in these data.

Test system: CD2F1 mice, L1210 leukemia ip, survival T/C
Experiment: NCI In Vivo Anticancer Drug Screen. Data for tumor model L1210 Leukemia (intraperitoneal) in CD2F1 (CDF1) mice
Conditions: endpoint: mean survival time, higher = longer survival
Outline: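 In this screen, transplantable tumors were grown in mice given either the compound or its vehicle. Results were expressed as the treated measurement relative to the control measurement.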

Measured: T/C

COc1ccc(/C=N/NC(N)=S)cc1
inactive: dose: 16.0 mg/kg/injection, schedule: Q01DX008 (iv), vehicle: saline 98 % of control | dose: 32.0 mg/kg/injection, schedule: Q01DX008 (iv), vehicle: saline 100 % of control | dose: 32.0 mg/kg/injection, schedule: Q01DX009 (ip), vehicle: saline 100 % of control and 109 % of control | dose: 64.0 mg/kg/injection, schedule: Q01DX008 (iv), vehicle: saline 97 % of control | dose: 64.0 mg/kg/injection, schedule: Q01DX009 (ip), vehicle: saline 98 % of control | dose: 128.0 mg/kg/injection, schedule: Q01DX009 (ip), vehicle: saline 100 % of control and 109 % of control | dose: 256.0 mg/kg/injection, schedule: Q01DX009 (ip), vehicle: saline 104 % of control and 112 % of control

C=CCOP(=O)(OCC=C)C(Cl)(Cl)Cl
inactive: dose: 75.0 mg/kg/injection, schedule: Q01DX001 (ip), vehicle: other 109 % of control | dose: 150.0 mg/kg/injection, schedule: Q01DX001 (ip), vehicle: other 97 % of control | dose: 300.0 mg/kg/injection, schedule: Q01DX001 (ip), vehicle: other 109 % of control

COC(=O)C(C)NC(=O)C(CO)NC(=O)c1cnc2ccccc2n1 (configuration not stated)
inactive: dose: 100.0 mg/kg/injection, schedule: Q01DX001 (ip), vehicle: saline 98 % of control | dose: 200.0 mg/kg/injection, schedule: Q01DX001 (ip), vehicle: saline 102 % of control | dose: 400.0 mg/kg/injection, schedule: Q01DX001 (ip), vehicle: saline 94 % of control

CNC(=O)Oc1ccc(N)cc1
inactive: dose: 75.0 mg/kg/injection, schedule: Q01DX001 (ip), vehicle: saline 102 % of control

CC1COCC(C)N1 (configuration not stated)
inactive: dose: 100.0 mg/kg/injection, schedule: Q04DX003 (ip), vehicle: saline 96 % of control | dose: 200.0 mg/kg/injection, schedule: Q04DX003 (ip), vehicle: saline 98 % of control | dose: 400.0 mg/kg/injection, schedule: Q04DX003 (ip), vehicle: saline 96 % of control
